Test results reported in ChEMBL document CHEMBL4376892, “Identification of Parthenolide Dimers as Activators of Pyruvate Kinase M2 in Xenografts of Glioblastoma Multiforme in Vivo” (J Med Chem, 2020).
Each block holds one compound with its values, some of them ahead of it. Activity calls are given as the source filed them. The calls are words filed in the database; no cut-off is given here.

What was measured:
C6 = assay: Antiproliferative activity against rat C6 cells assessed as reduction in cell viability after 72 hrs by MTT assay; type: functional, cell-based; conditions: C6, 72 h
U-251 = assay: Antiproliferative activity against human U251 cells assessed as reduction in cell viability after 72 hrs by MTT assay; type: functional, cell-based; conditions: U-251, 72 h
NIH3T3 = assay: Cytotoxicity against mouse 3T3 cells assessed as reduction in cell viability after 72 hrs by MTT assay; type: cell-based; conditions: NIH3T3, 72 h
Pyruvate kinase PKM [1] = target: T1, Pyruvate kinase PKM (Homo sapiens, UniProt P14618); assay: Activation of recombinant human N-terminal 6His-tagged PKM2 expressed in Escherichia coli BL21 cells at 10 uM after 30 mins by fluorescence based analysis relative to control
Target sequence in this assay (P14618 2-531 limits assumed): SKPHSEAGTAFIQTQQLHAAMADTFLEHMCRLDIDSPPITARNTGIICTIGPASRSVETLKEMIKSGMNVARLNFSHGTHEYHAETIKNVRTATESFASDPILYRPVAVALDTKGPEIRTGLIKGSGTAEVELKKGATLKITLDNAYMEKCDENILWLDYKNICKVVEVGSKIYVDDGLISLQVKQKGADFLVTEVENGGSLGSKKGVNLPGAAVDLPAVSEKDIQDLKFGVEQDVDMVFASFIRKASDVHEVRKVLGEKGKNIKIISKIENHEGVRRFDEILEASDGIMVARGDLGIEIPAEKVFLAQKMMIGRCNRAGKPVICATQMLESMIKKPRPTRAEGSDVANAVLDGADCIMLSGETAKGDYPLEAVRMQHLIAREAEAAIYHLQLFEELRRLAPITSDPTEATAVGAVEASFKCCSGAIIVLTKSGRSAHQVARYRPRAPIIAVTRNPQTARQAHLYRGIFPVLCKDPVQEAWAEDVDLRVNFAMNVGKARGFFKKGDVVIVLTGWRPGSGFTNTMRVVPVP

U-87 MG = assay: Antiproliferative activity against human U87 cells assessed as reduction in cell viability after 72 hrs by MTT assay; type: functional, cell-based, U-87MG ATCC
Pyruvate kinase PKM [2] = target: T1, Pyruvate kinase PKM; assay: Activation of recombinant human N-terminal 6His-tagged PKM2 expressed in Escherichia coli BL21 cells after 50 mins by fluorescence based analysis
Target sequence in this assay (P14618 whole entry): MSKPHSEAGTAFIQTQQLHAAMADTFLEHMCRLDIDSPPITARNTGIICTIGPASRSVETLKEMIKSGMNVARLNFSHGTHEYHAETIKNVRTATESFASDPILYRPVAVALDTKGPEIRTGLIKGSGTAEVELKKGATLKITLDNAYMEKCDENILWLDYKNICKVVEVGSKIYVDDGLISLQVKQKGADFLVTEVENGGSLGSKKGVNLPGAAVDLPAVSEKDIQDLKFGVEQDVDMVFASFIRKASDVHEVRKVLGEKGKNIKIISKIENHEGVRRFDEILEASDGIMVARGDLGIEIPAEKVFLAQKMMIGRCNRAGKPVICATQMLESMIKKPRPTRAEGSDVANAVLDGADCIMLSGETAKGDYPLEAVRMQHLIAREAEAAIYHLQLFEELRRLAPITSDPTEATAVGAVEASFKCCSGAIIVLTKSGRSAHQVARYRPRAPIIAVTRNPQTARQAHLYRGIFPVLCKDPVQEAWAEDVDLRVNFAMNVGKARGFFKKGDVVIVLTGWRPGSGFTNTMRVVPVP

[3] = Antiproliferative activity against human SHG44 cells assessed as reduction in cell viability after 72 hrs by MTT assay; type: functional, cell-based; conditions: SHG-44, 72 h
U-118-MG [4] = assay: Antiproliferative activity against human U118MG cells assessed as reduction in cell viability after 72 hrs by MTT assay; type: functional, cell-based
SF-126 = assay: Antiproliferative activity against human SF126 cells assessed as reduction in cell viability after 72 hrs by MTT assay; type: functional, cell-based; conditions: SF-126, 72 h
Mus musculus [5] = assay: Increase in Bax protein expression in tumor of Bar b/c nude mouse xenografted with human U118MG cells at 50 mg/kg, ip adminstered every 3 days for 3 weeks and measured after 20 days by Western blot analysis; type: functional, organism-based
Mus musculus [6] = assay: Reduction in Bcl2 protein expression in tumor of siPKM2-treated Bar b/c nude mouse xenografted with human U118MG cells at 50 mg/kg, ip adminstered twice weekly for 3 weeks and measured after 20 days by immunohistochemical analysis; type: functional, organism-based
U-118-MG [7] = assay: Antitumor activity against human U118MG cells xenografted in Bar b/c nude mouse assessed as reduction in tumor weight at 50 mg/kg, ip adminstered twice weekly for 3 weeks and measured every 3 days for 20 days by caliper method; type: functional, organism-based
Mus musculus [8] = assay: Increase in E-cadherin protein expression in tumor of siPKM2-treated Bar b/c nude mouse xenografted with human U118MG cells at 50 mg/kg, ip adminstered twice weekly for 3 weeks and measured after 20 days by immunohistochemical analysis; type: functional, organism-based
Mus musculus [9] = assay: Increase in bax protein expression in tumor of siPKM2-treated Bar b/c nude mouse xenografted with human U118MG cells at 50 mg/kg, ip adminstered twice weekly for 3 weeks and measured after 20 days by immunohistochemical analysis; type: functional, organism-based
Mus musculus [10] = assay: Reduction in vimentin protein expression in tumor of siPKM2-treated Bar b/c nude mouse xenografted with human U118MG cells at 50 mg/kg, ip adminstered twice weekly for 3 weeks and measured after 20 days by immunohistochemical analysis; type: functional, organism-based
U-118-MG [11] = assay: Antitumor activity against human U118MG cells xenografted in siPKM2-treated Bar b/c nude mouse assessed as tumor growth at 50 mg/kg, ip adminstered twice weekly for 3 weeks measured every 3 days for 20 days by caliper method; type: functional, organism-based
Mus musculus [12] = assay: Reduction in phosphorylated STAT3 expression in tumor of Bar b/c nude mouse xenografted with human U118MG cells at 50 mg/kg, ip adminstered twice weekly for 3 weeks and measured after 20 days by immunohistochemical analysis; type: functional, organism-based
Mus musculus [13] = assay: Reduction in vimentin protein expression in tumor of Bar b/c nude mouse xenografted with human U118MG cells at 50 mg/kg, ip adminstered every 3 days for 3 weeks and measured after 20 days by Western blot analysis; type: functional, organism-based
Mus musculus [14] = assay: Increase in bax protein expression in tumor of Bar b/c nude mouse xenografted with human U118MG cells at 50 mg/kg, ip adminstered twice weekly for 3 weeks and measured after 20 days by immunohistochemical analysis; type: functional, organism-based
Mus musculus [15] = assay: Increase in E-cadherin protein expression in tumor of Bar b/c nude mouse xenografted with human U118MG cells at 50 mg/kg, ip adminstered every 3 days for 3 weeks and measured after 20 days by Western blot analysis; type: functional, organism-based
Mus musculus [16] = assay: Reduction in vimentin protein expression in tumor of Bar b/c nude mouse xenografted with human U118MG cells at 50 mg/kg, ip adminstered twice weekly for 3 weeks and measured after 20 days by immunohistochemical analysis; type: functional, organism-based
Mus musculus [17] = assay: Reduction in STAT3 protein expression in tumor of Bar b/c nude mouse xenografted with human U118MG cells at 50 mg/kg, ip adminstered every 3 days for 3 weeks and measured after 20 days by Western blot analysis; type: functional, organism-based
Mus musculus [18] = assay: Reduction in STAT3 gene expression in tumor of Bar b/c nude mouse xenografted with human U118MG cells at 50 mg/kg, ip adminstered every 3 days for 3 weeks; type: functional, organism-based
Mus musculus [19] = assay: Reduction in Bcl2 gene expression in tumor of Bar b/c nude mouse xenografted with human U118MG cells at 50 mg/kg, ip adminstered every 3 days for 3 weeks; type: functional, organism-based
Mus musculus [20] = assay: Reduction in phosphorylated STAT3 expression in tumor of siPKM2-treated Bar b/c nude mouse xenografted with human U118MG cells at 50 mg/kg, ip adminstered twice weekly for 3 weeks and measured after 20 days by immunohistochemical analysis; type: functional, organism-based
Mus musculus [21] = assay: Increase in E-cadherin gene expression in tumor of Bar b/c nude mouse xenografted with human U118MG cells at 50 mg/kg, ip adminstered every 3 days for 3 weeks; type: functional, organism-based
Mus musculus [22] = assay: Increase in E-cadherin protein expression in tumor of Bar b/c nude mouse xenografted with human U118MG cells at 50 mg/kg, ip adminstered twice weekly for 3 weeks and measured after 20 days by immunohistochemical analysis; type: functional, organism-based
Mus musculus [23] = assay: Reduction in Bcl2 protein expression in tumor of Bar b/c nude mouse xenografted with human U118MG cells at 50 mg/kg, ip adminstered twice weekly for 3 weeks and measured after 20 days by immunohistochemical analysis; type: functional, organism-based
Mus musculus [24] = assay: Reduction in Bcl2 protein expression in tumor of Bar b/c nude mouse xenografted with human U118MG cells at 50 mg/kg, ip adminstered every 3 days for 3 weeks and measured after 20 days by Western blot analysis; type: functional, organism-based
[25] = Toxicity in Bar b/c nude mouse xenografted with human U118MG cells assessed as effect on body weight at 50 mg/kg, ip adminstered twice weekly for 3 weeks and measured every 3 days for 20 days; type: organism-based; conditions: in vivo, 480 h
U-118-MG [26] = assay: Antitumor activity against human U118MG cells xenografted in Bar b/c nude mouse assessed as reduction in tumor growth at 50 mg/kg, ip adminstered twice weekly for 3 weeks and measured every 3 days for 20 days by caliper method; type: functional, organism-based

Structure (SMILES): C=C1C(=O)O[C@H]2[C@H]1CC/C(C(=O)OCCOCCOCCOCCOCCOCCOCCOCCOCCOCCOC(=O)/C1=C/CC[C@@]3(C)O[C@H]3[C@H]3OC(=O)C(=C)[C@@H]3CC1)=C\CC[C@@]1(C)O[C@@H]21
- IC50 (C6): 14.2 µM
- IC50 (U-251): 23.3 µM
- IC50 (NIH3T3): > 50 µM
- fold change (FC) (Pyruvate kinase PKM [1]): > 2
- IC50 (U-87 MG): > 50 µM
- IC50 [3]: 24.5 µM
- IC50 (U-118-MG [4]): 18.7 µM
- IC50 (SF-126): 23.1 µM

Structure (SMILES): C=C1C(=O)O[C@H]2[C@H]1CC/C(C(=O)OCCOCCOCCOCCOCCOCCOCCOCCOC(=O)/C1=C/CC[C@@]3(C)O[C@H]3[C@H]3OC(=O)C(=C)[C@@H]3CC1)=C\CC[C@@]1(C)O[C@@H]21
- IC50 (C6): 4.98 µM
- IC50 (U-251): > 50 µM
- IC50 (NIH3T3): 22 µM
- fold change (FC) (Pyruvate kinase PKM [1]): > 2
- IC50 (U-87 MG): 12.9 µM
- AC50 (Pyruvate kinase PKM [2]): 0.065 µM
- IC50 [3]: 25.7 µM
- IC50 (U-118-MG [4]): 11.8 µM
- IC50 (SF-126): > 50 µM

Structure (SMILES): C=C1C(=O)O[C@H]2[C@H]1CC/C(C(=O)OCCOCCOCCOCCOC(=O)/C1=C/CC[C@@]3(C)O[C@H]3[C@H]3OC(=O)C(=C)[C@@H]3CC1)=C\CC[C@@]1(C)O[C@@H]21
- IC50 (C6): 4.26 µM
- IC50 (U-251): 16.6 µM
- IC50 (NIH3T3): 16.1 µM
- fold change (FC) (Pyruvate kinase PKM [1]): > 2
- IC50 (U-87 MG): 9.13 µM
- IC50 [3]: 16.3 µM
- IC50 (U-118-MG [4]): 7.97 µM
- IC50 (SF-126): 20.1 µM

Structure (SMILES): C=C1C(=O)O[C@H]2[C@H]1CC/C(C(=O)OCCOCCOCCOCCOCCOCCOCCOCCOCCOCCOCCOCCOCCOCCOCCOCCOCCOCCOCCOCCOC(=O)/C1=C/CC[C@@]3(C)O[C@H]3[C@H]3OC(=O)C(=C)[C@@H]3CC1)=C\CC[C@@]1(C)O[C@@H]21
- IC50 (C6): > 50 µM
- IC50 (U-251): > 50 µM
- IC50 (NIH3T3): > 50 µM
- fold change (FC) (Pyruvate kinase PKM [1]): > 2
- IC50 (U-87 MG): > 50 µM
- IC50 [3]: > 50 µM
- IC50 (U-118-MG [4]): > 50 µM
- IC50 (SF-126): > 50 µM

Structure (SMILES): CN(C)C[C@@H]1C(=O)O[C@H]2[C@H]1CC/C(C(=O)OCCOCCOC(=O)/C1=C/CC[C@@]3(C)O[C@H]3[C@H]3OC(=O)[C@@H](CN(C)C)[C@@H]3CC1)=C\CC[C@@]1(C)O[C@@H]21.O=C(O)/C=C/C(=O)O.O=C(O)/C=C/C(=O)O
- Activity (Mus musculus [5]): Active
- inhibition (Mus musculus [6]): inactive
- Activity (U-118-MG [7]): Active
- Activity (Mus musculus [8]): inactive
- Activity (Mus musculus [9]): inactive
- inhibition (Mus musculus [10]): inactive
- Activity (U-118-MG [11]): inactive
- inhibition (Mus musculus [12]): Active
- inhibition (Mus musculus [13]): Active
- Activity (Mus musculus [14]): Active
- Activity (Mus musculus [15]): Active
- inhibition (Mus musculus [16]): Active
- inhibition (Mus musculus [17]): Active
- inhibition (Mus musculus [18]): Active
- inhibition (Mus musculus [19]): Active
- inhibition (Mus musculus [20]): inactive
- Activity (Mus musculus [21]): Active
- Activity (Mus musculus [22]): Active
- inhibition (Mus musculus [23]): Active
- inhibition (Mus musculus [24]): Active
- Activity [25]: Non-Toxic
- Activity (U-118-MG [26]): Active

More lines, main results first:

- IC50 (U-251): 9.59 µM
- fold change (FC) (Pyruvate kinase PKM [1]): > 2
- IC50 (U-87 MG): 3.09 µM
- AC50 (Pyruvate kinase PKM [2]): 0.052 µM
Structure (SMILES): C=C1C(=O)O[C@H]2[C@H]1CC/C(C(=O)OCCOCCOCCOC(=O)/C1=C/CC[C@@]3(C)O[C@H]3[C@H]3OC(=O)C(=C)[C@@H]3CC1)=C\CC[C@@]1(C)O[C@@H]21
- IC50 (C6): 1.59 µM
- IC50 (NIH3T3): 7.86 µM
- IC50 [3]: 10.5 µM
- IC50 (U-118-MG [4]): 2.87 µM
- IC50 (SF-126): 10.2 µM

- IC50 (U-251): 12.6 µM
- IC50 (U-87 MG): 4.38 µM
Structure (SMILES): C=C1C(=O)O[C@@H]2C3O[C@]3(C)CC/C=C(\C)CC[C@@H]12 (stereo partly specified)
- IC50 (C6): 5.45 µM
- IC50 (NIH3T3): 7.14 µM
- IC50 [3]: 9.52 µM
- IC50 (U-118-MG [4]): 5.94 µM
- IC50 (SF-126): 17.1 µM
